Source: US12043599B2, “Herbicidal compounds” (SYNGENTA PARTICIPATIONS AG, priority 2018, dated 2024)

Assays:
Assay type in all cases: in vivo
Settings in all cases: 250 g/h, evaluated after 13 days
[1] = test system: Alopecurus myosuroides (ALOMY); assay: Pre-emergence herbicidal glasshouse test, percentage damage
Outline: (§1)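 Damage assessed 13 days after treatment and expressed as a five-point score (5=80-100%; 4=60-79%; 3=40-59%; 2=20-39%; 1=0-19%). Compound applied at 250 g/h as an acetone/water/0.5% Tween 20 spray, pre-emergence (day 1 after sowing) or post-emergence (day 8). Plants kept at 24/16° C., 14 h light, 65% humidity.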

[2] = test system: Setaria faberi (SETFA); assay: as above
Outline: as §1

[3] = test system: Echinochloa crus-galli (ECHCG); assay: as above
Outline: as §1

[4] = test system: Lolium perenne (LOLPE); assay: as above
Outline: as §1

[5] = test system: Avena fatua (AVEFA); assay: as above
Outline: as §1

[6] = test system: Setaria faberi (SETFA); assay: Post-emergence herbicidal glasshouse test, percentage damage
Outline: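 Percentage damage was scored 13 days after treatment on a five-point scale (1=0-19% to 5=80-100%). Treatments were post-emergence sprays on 8-day-old wheat, barley and SETFA plants in a glasshouse (24/16 °C day/night, 14 h light, 65% humidity), using acetone/water 50:50 with 0.5% Tween 20 at the stated rates. Wheat additionally received cloquintocet-mexyl safener at 50 g/ha.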

[7] = test system: Alopecurus myosuroides (ALOMY); assay: as above
Outline: as §1

[8] = test system: Echinochloa crus-galli (ECHCG); assay: as above
Outline: as §1

[9] = test system: Lolium perenne (LOLPE); assay: as above
Outline: as §1

[10] = test system: Avena fatua (AVEFA); assay: as above
Outline: as §1

## CC#Cc1cc(C)c(C2C(=O)CC3(CCN(C(=O)Cc4ccncc4)CC3)CC2=O)c(C)c1 [Compound A100]
[1]
  ALOMY PRE percentage damage (five point scale): 3 (3=40-59%)
[2]
  SETFA PRE percentage damage (five point scale): 5 (5=80-100%)
[3]
  ECHCG PRE percentage damage (five point scale): 5 (5=80-100%)
[4]
  LOLPE PRE percentage damage (five point scale): 5 (5=80-100%)
[5]
  AVEFA PRE percentage damage (five point scale): 3 (3=40-59%)
[6]
  SETFA POST percentage damage (five point scale): 5 (5=80-100%)
[7]
  ALOMY POST percentage damage (five point scale): 4 (4=60-79%)
[8]
  ECHCG POST percentage damage (five point scale): 5 (5=80-100%)
[9]
  LOLPE POST percentage damage (five point scale): 5 (5=80-100%)
[10]
  AVEFA POST percentage damage (five point scale): 5 (5=80-100%)

## CC#Cc1cc(C)c(C2C(=O)CC3(CCN(C(=O)Cc4ccncn4)CC3)CC2=O)c(C)c1 [Compound A101]
[1]
  ALOMY PRE percentage damage (five point scale): 4 (4=60-79%)
[2]
  SETFA PRE percentage damage (five point scale): 5 (5=80-100%)
[3]
  ECHCG PRE percentage damage (five point scale): 5 (5=80-100%)
[4]
  LOLPE PRE percentage damage (five point scale): 5 (5=80-100%)
[5]
  AVEFA PRE percentage damage (five point scale): 4 (4=60-79%)
[6]
  SETFA POST percentage damage (five point scale): 5 (5=80-100%)
[7]
  ALOMY POST percentage damage (five point scale): 5 (5=80-100%)
[8]
  ECHCG POST percentage damage (five point scale): 5 (5=80-100%)
[9]
  LOLPE POST percentage damage (five point scale): 5 (5=80-100%)
[10]
  AVEFA POST percentage damage (five point scale): 5 (5=80-100%)

## CC#Cc1cc(C)c(C2C(=O)CC3(CCN(C(=O)Cc4ncccn4)CC3)CC2=O)c(C)c1 [Compound A102]
[1]
  ALOMY PRE percentage damage (five point scale): 2 (2=20-39%)
[2]
  SETFA PRE percentage damage (five point scale): 5 (5=80-100%)
[3]
  ECHCG PRE percentage damage (five point scale): 5 (5=80-100%)
[4]
  LOLPE PRE percentage damage (five point scale): 5 (5=80-100%)
[5]
  AVEFA PRE percentage damage (five point scale): 5 (5=80-100%)
[6]
  SETFA POST percentage damage (five point scale): 5 (5=80-100%)
[7]
  ALOMY POST percentage damage (five point scale): 5 (5=80-100%)
[8]
  ECHCG POST percentage damage (five point scale): 5 (5=80-100%)
[9]
  LOLPE POST percentage damage (five point scale): 5 (5=80-100%)
[10]
  AVEFA POST percentage damage (five point scale): 5 (5=80-100%)

## CC#Cc1cc(C)c(C2C(=O)CC3(CCN(C(=O)Cc4cccnn4)CC3)CC2=O)c(C)c1 [Compound A103]
[1]
  ALOMY PRE percentage damage (five point scale): 4 (4=60-79%)
[2]
  SETFA PRE percentage damage (five point scale): 5 (5=80-100%)
[3]
  ECHCG PRE percentage damage (five point scale): 5 (5=80-100%)
[4]
  LOLPE PRE percentage damage (five point scale): 4 (4=60-79%)
[5]
  AVEFA PRE percentage damage (five point scale): 4 (4=60-79%)
[6]
  SETFA POST percentage damage (five point scale): 5 (5=80-100%)
[7]
  ALOMY POST percentage damage (five point scale): 5 (5=80-100%)
[8]
  ECHCG POST percentage damage (five point scale): 5 (5=80-100%)
[9]
  LOLPE POST percentage damage (five point scale): 5 (5=80-100%)
[10]
  AVEFA POST percentage damage (five point scale): 5 (5=80-100%)

## CC#Cc1cc(C)c(C2C(=O)CC3(CCN(C(=O)Cc4cnccn4)CC3)CC2=O)c(C)c1 [Compound A104]
[1]
  ALOMY PRE percentage damage (five point scale): 4 (4=60-79%)
[2]
  SETFA PRE percentage damage (five point scale): 5 (5=80-100%)
[3]
  ECHCG PRE percentage damage (five point scale): 5 (5=80-100%)
[4]
  LOLPE PRE percentage damage (five point scale): 5 (5=80-100%)
[5]
  AVEFA PRE percentage damage (five point scale): 5 (5=80-100%)
[6]
  SETFA POST percentage damage (five point scale): 5 (5=80-100%)
[7]
  ALOMY POST percentage damage (five point scale): 5 (5=80-100%)
[8]
  ECHCG POST percentage damage (five point scale): 5 (5=80-100%)
[9]
  LOLPE POST percentage damage (five point scale): 5 (5=80-100%)
[10]
  AVEFA POST percentage damage (five point scale): 5 (5=80-100%)

## CC#Cc1cc(C)c(C2C(=O)CC3(CCN(C(=O)NC(=O)c4cccnc4)CC3)CC2=O)c(C)c1 [Compound A145]
[1]
  ALOMY PRE percentage damage (five point scale): 3 (3=40-59%)
[2]
  SETFA PRE percentage damage (five point scale): 5 (5=80-100%)
[3]
  ECHCG PRE percentage damage (five point scale): 5 (5=80-100%)
[4]
  LOLPE PRE percentage damage (five point scale): 4 (4=60-79%)
[5]
  AVEFA PRE percentage damage (five point scale): 2 (2=20-39%)
[6]
  SETFA POST percentage damage (five point scale): 5 (5=80-100%)
[7]
  ALOMY POST percentage damage (five point scale): 5 (5=80-100%)
[8]
  ECHCG POST percentage damage (five point scale): 5 (5=80-100%)
[9]
  LOLPE POST percentage damage (five point scale): 5 (5=80-100%)
[10]
  AVEFA POST percentage damage (five point scale): 5 (5=80-100%)

## CC#Cc1cc(C)c(C2C(=O)CC3(CCN(C(=O)C(C)(C)O)CC3)CC2=O)c(C)c1 [Compound A146]
[1]
  ALOMY PRE percentage damage (five point scale): 5 (5=80-100%)
[2]
  SETFA PRE percentage damage (five point scale): 5 (5=80-100%)
[3]
  ECHCG PRE percentage damage (five point scale): 5 (5=80-100%)
[4]
  LOLPE PRE percentage damage (five point scale): 5 (5=80-100%)
[5]
  AVEFA PRE percentage damage (five point scale): 4 (4=60-79%)
[6]
  SETFA POST percentage damage (five point scale): 5 (5=80-100%)
[7]
  ALOMY POST percentage damage (five point scale): 5 (5=80-100%)
[8]
  ECHCG POST percentage damage (five point scale): 5 (5=80-100%)
[9]
  LOLPE POST percentage damage (five point scale): 5 (5=80-100%)
[10]
  AVEFA POST percentage damage (five point scale): 5 (5=80-100%)

## CC#Cc1cc(C)c(C2C(=O)CC3(CCN(C(=O)COCCOC)CC3)CC2=O)c(C)c1 [Compound A147]
[1]
  ALOMY PRE percentage damage (five point scale): 4 (4=60-79%)
[2]
  SETFA PRE percentage damage (five point scale): 5 (5=80-100%)
[3]
  ECHCG PRE percentage damage (five point scale): 5 (5=80-100%)
[4]
  LOLPE PRE percentage damage (five point scale): 5 (5=80-100%)
[5]
  AVEFA PRE percentage damage (five point scale): 3 (3=40-59%)
[6]
  SETFA POST percentage damage (five point scale): 5 (5=80-100%)
[7]
  ALOMY POST percentage damage (five point scale): 5 (5=80-100%)
[8]
  ECHCG POST percentage damage (five point scale): 5 (5=80-100%)
[9]
  LOLPE POST percentage damage (five point scale): 5 (5=80-100%)
[10]
  AVEFA POST percentage damage (five point scale): 5 (5=80-100%)

## CC#Cc1cc(C)c(C2C(=O)CC3(CCN(C(=O)COCC)CC3)CC2=O)c(C)c1 [Compound A148]
[1]
  ALOMY PRE percentage damage (five point scale): 5 (5=80-100%)
[2]
  SETFA PRE percentage damage (five point scale): 5 (5=80-100%)
[3]
  ECHCG PRE percentage damage (five point scale): 5 (5=80-100%)
[4]
  LOLPE PRE percentage damage (five point scale): 5 (5=80-100%)
[5]
  AVEFA PRE percentage damage (five point scale): 5 (5=80-100%)
[6]
  SETFA POST percentage damage (five point scale): 5 (5=80-100%)
[7]
  ALOMY POST percentage damage (five point scale): 5 (5=80-100%)
[8]
  ECHCG POST percentage damage (five point scale): 5 (5=80-100%)
[9]
  LOLPE POST percentage damage (five point scale): 5 (5=80-100%)
[10]
  AVEFA POST percentage damage (five point scale): 5 (5=80-100%)

## CC#Cc1cc(C)c(C2C(=O)CC3(CCN(C(=O)CC4OCCO4)CC3)CC2=O)c(C)c1 [Compound A151]
[1]
  ALOMY PRE percentage damage (five point scale): 5 (5=80-100%)
[2]
  SETFA PRE percentage damage (five point scale): 5 (5=80-100%)
[3]
  ECHCG PRE percentage damage (five point scale): 5 (5=80-100%)
[4]
  LOLPE PRE percentage damage (five point scale): 5 (5=80-100%)
[5]
  AVEFA PRE percentage damage (five point scale): 5 (5=80-100%)
[6]
  SETFA POST percentage damage (five point scale): 5 (5=80-100%)
[7]
  ALOMY POST percentage damage (five point scale): 5 (5=80-100%)
[8]
  ECHCG POST percentage damage (five point scale): 5 (5=80-100%)
[9]
  LOLPE POST percentage damage (five point scale): 5 (5=80-100%)
[10]
  AVEFA POST percentage damage (five point scale): 5 (5=80-100%)

## CC#Cc1cc(C)c(C2C(=O)CC3(CCN(C(=O)NC(C)C)CC3)CC2=O)c(C)c1 [Compound A152]
[1]
  ALOMY PRE percentage damage (five point scale): 5 (5=80-100%)
[2]
  SETFA PRE percentage damage (five point scale): 5 (5=80-100%)
[3]
  ECHCG PRE percentage damage (five point scale): 5 (5=80-100%)
[4]
  LOLPE PRE percentage damage (five point scale): 5 (5=80-100%)
[5]
  AVEFA PRE percentage damage (five point scale): 5 (5=80-100%)
[6]
  SETFA POST percentage damage (five point scale): 5 (5=80-100%)
[7]
  ALOMY POST percentage damage (five point scale): 5 (5=80-100%)
[8]
  ECHCG POST percentage damage (five point scale): 5 (5=80-100%)
[9]
  LOLPE POST percentage damage (five point scale): 5 (5=80-100%)
[10]
  AVEFA POST percentage damage (five point scale): 5 (5=80-100%)
